Test results taken from ChEMBL document CHEMBL1201862, “PubChem BioAssay data set” (2004).
Where a name gives a salt, the structure may show the parent alone.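 Five concentrations, 48 hours, 96-well plates. Abbreviation: GI50, concentration required for 50% inhibition of growth.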 Active and inactive are the calls of the source. No stated cut-off is given here; in the data, active = GI50 up to about 1.1 µM and inactive = higher.

Experiments:
Test in all cases: DTP human tumour cell line panel, 48 h
[1] = test system: NCI-H522
[2] = test system: NCI-H23
[3] = test system: BT-549
[4] = test system: MDA-N
[5] = test system: SF-295
[6] = test system: LOX IMVI
[7] = test system: OVCAR-8
[8] = test system: HCT-116
[9] = test system: NCI/ADR-RES
[10] = test system: HOP-92
[11] = test system: SK-MEL-28
[12] = test system: ACHN
[13] = test system: Malme-3M
[14] = test system: SW-620
[15] = test system: MOLT-4
[16] = test system: T47D
[17] = test system: HT-29
[18] = test system: SNB-19
[19] = test system: HOP-62
[20] = test system: K562
[21] = test system: MCF7
[22] = test system: U-251
[23] = test system: IGROV-1
[24] = test system: SK-OV-3
[25] = test system: CCRF-CEM
[26] = test system: UACC-62
[27] = test system: UO-31
[28] = test system: Hs-578T
[29] = test system: SNB-75
[30] = test system: NCI-H226
[31] = test system: RPMI-8226
[32] = test system: A549
[33] = test system: SN12C
[34] = test system: NCI-H460
[35] = test system: EKVX
[36] = test system: MDA-MB-231
[37] = test system: SK-MEL-5
[38] = test system: PC-3
[39] = test system: TK-10
[40] = test system: SR
[41] = test system: CAKI-1
[42] = test system: HCC 2998
[43] = test system: HCT-15
[44] = test system: OVCAR-5
[45] = test system: KM12
[46] = test system: OVCAR-3
[47] = test system: DU-145
[48] = test system: COLO 205
[49] = test system: MDA-MB-435
[50] = test system: RXF 393
[51] = test system: 786-0
[52] = test system: A498
[53] = test system: OVCAR-4
[54] = test system: HL-60
[55] = test system: M14
[56] = test system: SF-539
[57] = test system: SF-268
[58] = test system: SK-MEL-2
[59] = test system: UACC-257

**Q.** How did the GI50 [1] turn out when `O=C(NC(Cc1c[nH]cn1)C(=O)N1CCCC1)C1CCCC1` (stereo not drawn) was run?
**A.** > 100 µM (inactive)

**Q.** And the GI50 [2]?
**A.** > 100 µM (inactive)

**Q.** What about the GI50 [3] of the same compound?
**A.** > 100 µM (inactive)

**Q.** What about the GI50 [4] of the same compound?
**A.** > 100 µM (inactive)

**Q.** And the GI50 [5]?
**A.** > 100 µM (inactive)

**Q.** And the GI50 [6]?
**A.** > 100 µM (inactive)

**Q.** And the GI50 [7]?
**A.** > 100 µM (inactive)

**Q.** And the GI50 [8]?
**A.** > 100 µM (inactive)

**Q.** And the GI50 [9]?
**A.** > 100 µM (inactive)

**Q.** And the GI50 [10]?
**A.** > 100 µM (inactive)

**Q.** What about the GI50 [11] of the same compound?
**A.** > 100 µM (inactive)

**Q.** What about the GI50 [12] of the same compound?
**A.** > 100 µM (inactive)

**Q.** And the GI50 [13]?
**A.** > 100 µM (inactive)

**Q.** What about the GI50 [14] of the same compound?
**A.** > 100 µM (inactive)

**Q.** What about the GI50 [15] of the same compound?
**A.** > 100 µM (inactive)

**Q.** And the GI50 [16]?
**A.** > 10 µM (inactive)

**Q.** What about the GI50 [17] of the same compound?
**A.** > 100 µM (inactive)

**Q.** What about the GI50 [18] of the same compound?
**A.** > 100 µM (inactive)

**Q.** And the GI50 [19]?
**A.** > 100 µM (inactive)

**Q.** And the GI50 [20]?
**A.** > 100 µM (inactive)

**Q.** What about the GI50 [21] of the same compound?
**A.** > 100 µM (inactive)

**Q.** What about the GI50 [22] of the same compound?
**A.** > 100 µM (inactive)

**Q.** And the GI50 [23]?
**A.** > 100 µM (inactive)

**Q.** And the GI50 [24]?
**A.** > 100 µM (inactive)

**Q.** What about the GI50 [25] of the same compound?
**A.** > 100 µM (inactive)

**Q.** What about the GI50 [26] of the same compound?
**A.** > 100 µM (inactive)

**Q.** What about the GI50 [27] of the same compound?
**A.** > 100 µM (inactive)

**Q.** And the GI50 [28]?
**A.** 83.8 µM (inactive)

**Q.** What about the GI50 [29] of the same compound?
**A.** > 100 µM (inactive)

**Q.** What about the GI50 [30] of the same compound?
**A.** > 100 µM (inactive)

**Q.** What about the GI50 [31] of the same compound?
**A.** > 100 µM (inactive)

**Q.** And the GI50 [32]?
**A.** > 100 µM (inactive)

**Q.** And the GI50 [33]?
**A.** > 100 µM (inactive)

**Q.** And the GI50 [34]?
**A.** > 100 µM (inactive)

**Q.** And the GI50 [35]?
**A.** > 100 µM (inactive)

**Q.** What about the GI50 [36] of the same compound?
**A.** > 100 µM (inactive)

**Q.** What about the GI50 [37] of the same compound?
**A.** > 100 µM (inactive)

**Q.** And the GI50 [38]?
**A.** > 100 µM (inactive)

**Q.** And the GI50 [39]?
**A.** > 100 µM (inactive)

**Q.** What about the GI50 [40] of the same compound?
**A.** 54.1 µM (inactive)

**Q.** What about the GI50 [41] of the same compound?
**A.** > 100 µM (inactive)

**Q.** And the GI50 [42]?
**A.** > 100 µM (inactive)

**Q.** What about the GI50 [43] of the same compound?
**A.** > 100 µM

**Q.** And the GI50 [44]?
**A.** > 100 µM (inactive)

**Q.** What about the GI50 [45] of the same compound?
**A.** > 100 µM (inactive)

**Q.** And the GI50 [46]?
**A.** > 100 µM (inactive)

**Q.** What about the GI50 [47] of the same compound?
**A.** > 100 µM (inactive)

**Q.** And the GI50 [48]?
**A.** > 100 µM (inactive)

**Q.** And the GI50 [49]?
**A.** > 100 µM (inactive)

**Q.** What about the GI50 [50] of the same compound?
**A.** > 100 µM (inactive)

**Q.** What about the GI50 [51] of the same compound?
**A.** > 100 µM (inactive)

**Q.** What about the GI50 [52] of the same compound?
**A.** 37.9 µM (inactive)

**Q.** And the GI50 [53]?
**A.** > 100 µM (inactive)

**Q.** And the GI50 [54]?
**A.** > 100 µM (inactive)

**Q.** And the GI50 [55]?
**A.** > 100 µM (inactive)

**Q.** Which results are given for `CCc1ccc2c(c1)N(CC(C)CN(C)C)c1ccccc1S2` (stereo not drawn) [ETYMEMAZINE HYDROCHLORIDE]?
**A.** GI50 [1]: 2.87 µM (inactive); GI50 [2]: 7.64 µM (inactive); GI50 [3]: 12.9 µM (inactive); GI50 [56]: 10.2 µM (inactive); GI50 [4]: 5.5 µM (inactive); GI50 [5]: 9.64 µM (inactive); GI50 [6]: 3.54 µM (inactive); GI50 [7]: 7.94 µM (inactive); GI50 [8]: 3.65 µM (inactive); GI50 [9]: 5.22 µM (inactive); GI50 [10]: 4.66 µM (inactive); GI50 [11]: 2.21 µM (inactive); GI50 [12]: 5.21 µM (inactive); GI50 [57]: 7.5 µM (inactive); GI50 [13]: 4.11 µM (inactive); GI50 [14]: 5.53 µM (inactive); GI50 [15]: 0.736 µM (active); GI50 [16]: 3.66 µM (inactive); GI50 [17]: 3.12 µM (inactive); GI50 [18]: 10.6 µM (inactive); GI50 [19]: 6.38 µM (inactive); GI50 [20]: 0.37 µM (active); GI50 [21]: 3.92 µM (inactive); GI50 [22]: 5.12 µM (inactive); GI50 [23]: 4.98 µM (inactive); GI50 [24]: 6.53 µM (inactive); GI50 [25]: 2.18 µM (inactive); GI50 [26]: 5.31 µM (inactive); GI50 [27]: 2.73 µM (inactive); GI50 [28]: 6.01 µM (inactive); GI50 [29]: 3 µM (inactive); GI50 [58]: 5.08 µM (inactive); GI50 [30]: 9.86 µM (inactive); GI50 [31]: 2.17 µM (inactive); GI50 [32]: 8.39 µM (inactive); GI50 [33]: 7.21 µM (inactive); GI50 [34]: 3.33 µM (inactive); GI50 [59]: 2.74 µM (inactive); GI50 [35]: 11.4 µM (inactive); GI50 [36]: 4.89 µM (inactive); GI50 [37]: 3.78 µM (inactive); GI50 [38]: 4.93 µM (inactive); GI50 [39]: 4.81 µM (inactive); GI50 [40]: 0.298 µM (active); GI50 [41]: 5.06 µM (inactive); GI50 [43]: 6.21 µM; GI50 [44]: 4.98 µM (inactive); GI50 [45]: 3.61 µM (inactive); GI50 [46]: 4.88 µM (inactive); GI50 [47]: 7.91 µM (inactive); GI50 [48]: 3.29 µM (inactive); GI50 [49]: 2.87 µM (inactive); GI50 [50]: 2.79 µM (inactive); GI50 [51]: 4.7 µM (inactive); GI50 [52]: 7.38 µM (inactive); GI50 [53]: 5.16 µM (inactive); GI50 [54]: 2.65 µM (inactive); GI50 [55]: 2.12 µM (inactive)
